Source: PMC4556614 (PLoS ONE, 2015)

What was measured:
[1] = target: T1, OCT2 (Homo sapiens, UniProt O15244); assay: Inhibition of OCT2-mediated [3H]MPP+ uptake in HEK-OCT2 cells; conditions: for inhibition at 3 min, 20 µM / inhibition at 3 min, 200 µM: pH 7.3, probe [3H]MPP+, 50 µM
Description: (§1) For the transport assays HEK cell lines stably transfected with human OCT2 (HEK-OCT2) or the vector only (HEK-VC) were used. The HEK-OCT2 cell line was established and characterized previously. HEK-OCT2 and HEK-VC cells were seeded in poly-D-lysine (Sigma Aldrich, Taufkirchen, Germany) coated 48-well-plates at a density of 1.2 x 10^5 cells/well. […] Uptake was stopped by washing the cells three times with ice-cold uptake buffer. Afterwards, cells were lysed with 5 mM Tris buffer (pH 7.3) containing 0.1% Triton X-100. The intracellular accumulation of radioactivity was determined by liquid scintillation counting (PerkinElmer, Rodgau-Jügesheim, Germany) and protein concentration of each lysate was measured with bicinchonic acid assay (BCA Protein Assay Kit, Thermo Fisher Scientific, Waltham, MA, USA). We performed two to eight experiments each on at least two separate days, i.e., n = 4–16.

[2] = target: T1, OCT2; assay: in vitro; conditions: human; for % Inhibition of OCT2-dependent MF uptake at 20 µM (mean ± SEM) / % Inhibition of OCT2-dependent MF uptake at 200 µM (mean ± SEM): pH 7.3; for inhibition at 3 min, 20 µM / inhibition at 3 min, 200 µM: pH 7.3, probe [14C]metformin, 1000 µM, metformin 1000 μM, net uptake HEK-OCT2 minus HEK-VC; for inhibition at 3 min, 20 µM: % Inhibition of OCT2-dependent MF uptake at 20 µM (mean ± SEM), test drug 20 µM; for inhibition at 3 min, 200 µM: % Inhibition of OCT2-dependent MF uptake at 200 µM (mean ± SEM), test drug 200 µM
Description: as §1
Experimental half-maximal inhibitory concentrations (IC50 values) were measured as the substrate uptake in the presence of increasing concentrations of test drugs. These experiments were performed as described above (three experiments each on two separate days, i.e., n = 6). IC50 values were calculated with GraphPad Prism 5.0 (GraphPad Software, San Diego, CA, USA). IC50 was estimated by a sigmoidal inhibition model and was fit to the equation V = V 0 / (1 + (I / IC50 ) ^n ) by nonlinear regression. V is the net uptake in the presence of the inhibitor, V 0 is the net uptake in the absence of the inhibitor, I is the concentration of the inhibitor and n is the slope.

[3] = test drug 20 µM, MPP+ 50 μM, 3 min, net uptake HEK-OCT2 minus HEK-VC
[4] = test drug 200 µM, MPP+ 50 μM, 3 min, net uptake HEK-OCT2 minus HEK-VC

T1 sequence (O15244 whole entry): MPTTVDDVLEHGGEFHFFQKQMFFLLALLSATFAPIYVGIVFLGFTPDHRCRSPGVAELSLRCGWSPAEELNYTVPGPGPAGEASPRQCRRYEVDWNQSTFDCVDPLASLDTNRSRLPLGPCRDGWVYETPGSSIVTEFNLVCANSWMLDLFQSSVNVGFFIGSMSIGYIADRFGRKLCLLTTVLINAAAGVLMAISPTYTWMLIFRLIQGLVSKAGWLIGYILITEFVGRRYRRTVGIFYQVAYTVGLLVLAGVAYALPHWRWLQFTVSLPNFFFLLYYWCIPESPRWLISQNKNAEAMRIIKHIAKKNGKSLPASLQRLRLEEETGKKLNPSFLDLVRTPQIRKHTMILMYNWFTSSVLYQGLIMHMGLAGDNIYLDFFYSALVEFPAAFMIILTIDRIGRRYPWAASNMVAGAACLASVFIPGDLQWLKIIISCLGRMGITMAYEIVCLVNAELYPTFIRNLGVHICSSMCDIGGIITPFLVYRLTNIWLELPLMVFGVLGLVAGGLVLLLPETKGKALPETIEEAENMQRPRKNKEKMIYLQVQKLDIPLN

Row | SMILES | % Inhibition of OCT2-dependent MPP+ uptake at 20 µM (mean ± SEM) [1, 3] [%] | % Inhibition of OCT2-dependent MPP+ uptake at 200 µM (mean ± SEM) [1, 4] [%] | % Inhibition of OCT2-dependent MF uptake at 20 µM (mean ± SEM) [2] | % Inhibition of OCT2-dependent MF uptake at 200 µM (mean ± SEM) [2] | inhibition at 3 min, 20 µM ([1]; human) [%] | inhibition at 3 min, 200 µM ([1]; human) [%] | inhibition at 3 min, 20 µM [2] [%] | inhibition at 3 min, 200 µM [2] [%] | % Inhibition of OCT2-dependent MPP+ uptake at 20 µM (mean ± SEM) ([1]; test drug 20 µM, MPP+ 50 μM, 3 min, net uptake HEK-OCT2 minus HEK-VC, listed as olanzapine) | % Inhibition of OCT2-dependent MPP+ uptake at 20 µM (mean ± SEM) ([1]; human, pH 7.3) | % Inhibition of OCT2-dependent MPP+ uptake at 200 µM (mean ± SEM) ([1]; human, pH 7.3)
1 | CN1CCN2c3ncccc3Cc3ccccc3C2C1 (stereo not shown) [Mirtazapine] | -4.8 ± 4.0 | 57.6 ± 6.1 | 73.3 ± 3.0 | 90.7 ± 3.9 | – | – | – | – | – | – | –
2 | O=C(NCCN1CCOCC1)c1ccc(Cl)cc1 [Moclobemide] | -38.7 ± 8.5 | -16.1 ± 17.7 | 4.3 ± 2.8 | 48.9 ± 2.1 | – | – | – | – | – | – | –
3 | CCOC(=O)[N-]c1cn(N2CCOCC2)n[o+]1 [Molsidomine] | -1.7 ± 8.3 | 3.8 ± 4.9 | 41.4 ± 3.6 | 69.5 ± 1.7 | – | – | – | – | – | – | –
4 | COc1nc(C)nc(Cl)c1N=C1NCCN1 [Moxonidine] | – | – | – | – | 16.3 ± 6.5 | 23.1 ± 7.1 | 58.1 ± 14.5 | 86.1 ± 2.9 | – | – | –
5 | OC(CNCC(O)C1CCc2cc(F)ccc2O1)C1CCc2cc(F)ccc2O1 (stereo not shown) [Nebivolol] | -13.7 ± 13.3 | 43.2 ± 3.3 | 61.4 ± 10.4 | 75.2 ± 10.8 | – | – | – | – | – | – | –
6 | CCOC(=O)C1=C(C)NC(C)=C(C(=O)OC)C1c1cccc([N+](=O)[O-])c1 (stereo not shown) [Nitrendipine] | 4.0 ± 6.3 | -2.4 ± 5.0 | 0.4 ± 9.8 | 53.2 ± 3.7 | – | – | – | – | – | – | –
7 | C#C[C@]1(O)CC[C@H]2[C@@H]3CCC4=CC(=O)CC[C@@H]4[C@H]3CC[C@@]21C [Norethindrone] | -29.4 ± 6.4 | 3.0 ± 3.3 | 41.0 ± 11.0 | 87.7 ± 6.1 | – | – | – | – | – | – | –
8 | Cc1cc2c(s1)Nc1ccccc1N=C2N1CCN(C)CC1 [Olanzapine] | 83.5 ± 9.4 | 109.7 ± 2.8 | -7.5 ± 5.7 | 74.9 ± 1.8 | – | – | – | – | most potent inhibitors | – | –
9 | CCCc1nc(C(C)(C)O)c(C(=O)O)n1Cc1ccc(-c2ccccc2-c2nnn[nH]2)cc1 [Olmesartan] | – | – | – | – | -23.8 ± 7.1 | -21.9 ± 13.3 | -0.1 ± 10.9 | 21.1 ± 7.3 | – | – | –
10 | OCCN1CCN(CCCN2c3ccccc3C=Cc3ccccc32)CC1 [Opipramol] | 14.0 ± 7.6 | 81.6 ± 3.9 | – | 99.5 ± 0.7 | – | – | – | – | – | – | –
11 | O=C1Nc2ccc(Cl)cc2C(c2ccccc2)=NC1O (stereo not shown) [Oxazepam] | – | – | – | 97.5 ± 0.5 | – | – | – | – | – | 37.6 ± 4.7 | 44.6 ± 6.5
12 | Fc1ccc([C@@H]2CCNC[C@H]2COc2ccc3c(c2)OCO3)cc1 [Paroxetine] | 15.5 ± 3.8 | 87.2 ± 3.6 | 80.6 ± 3.1 | 99.6 ± 1.9 | – | – | – | – | – | – | –
13 | CN1CCN(CCCN2c3ccccc3Sc3ccccc32)CC1 [Perazine] | 58.5 ± 2.8 | 65.9 ± 2.0 | 53.6 ± 3.6 | 92.0 ± 1.8 | – | – | – | – | – | – | –
14 | NC(=O)C1(N2CCCCC2)CCN(CCCC(=O)c2ccc(F)cc2)CC1 [Pipamperone] | 12.0 ± 4.5 | 33.1 ± 3.4 | 33.9 ± 6.0 | 78.1 ± 2.2 | – | – | – | – | – | – | –
